Reference: paper PMC5940854, “Nitrothiophene carboxamides, a novel narrow spectrum antibacterial series: Mechanism of action and Efficacy” (Scientific Reports, 2018)
Like-named read-outs stand apart in the source and are kept apart here.

Experiments:
[1] = tested on: wild-type E. coli CGSC#7636 (BW25113); test: MIC, wild-type E. coli; type: cell-based; settings: Escherichia coli, read-out: MIC WT
Description: (§1) The inoculum used for all the experiments is derived from a single seed lot that is maintained as glycerol stocks at −80 °C and are sub cultured on LB plate for isolated colonies. Single colony of each strain is grown in M9 medium. All test compound stocks and dilutions are prepared in DMSO. Serial two-fold dilutions of compounds are prepared separately, with the concentrations ranging from 2 mg/mL to 0.015 mg/mL. To 150 µl (3–7 × 10^5 CFU/ml) of bacterial culture in 96 well microtitre plates, 3 μL compound from each of the dilutions is added to respective wells to obtain final concentrations ranging from 40 µg/mL to 0.3 µg/mL of the test compounds. Media control, culture control and appropriate reference drug controls are included. […] Growth is monitored by checking absorbance at 600 nm (A600). […] The samples from MIC and above concentrations are plated for MBC (Minimum Bactericidal Concentration). The samples are diluted 1:10 and plated on LB agar plates. […] The killing kinetics is determined by enumerating survivors at various time points following compound exposure. E. coli cells (~10^7 CFU/ml; A600 of 0.1) are treated with various concentrations (40 µg/mL to 0.3 µg/mL) of compounds in a 96-well microtitre plate. At various time intervals (0 to 8 h), 30 μl volumes of treated cultures are serially diluted and plated on LB agar plates. […] Data is expressed as the log10 CFU for each drug treatment.

[2] = tested on: E. coli clinical isolates; test: MIC on panel of E. coli clinical isolates; type: cell-based; settings: for MIC Range / MIC50 / MIC90: 75 E.coli clinical isolates; for MIC50 / MIC90: Escherichia coli; for MIC50: 50% clinical isolates; for MIC90: 90% clinical isolates
E. coli BW24113 = test: In vitro time kill analysis; type: cell-based
Description: as §1

NfsB = biological target: T1, NfsB (Escherichia coli, UniProt P38489); test: Nitroreductase activity assay, NfsB; type: biochemical, E. coli; settings: 20 μM compound, 40 μM NADH, 70 nM NfsB; slope of initial velocity
T1 construct: His-tag; made in house; host or cells: E. coli BL21(DE3), pET28a (pET-nfsB)
Description: Enzyme reducing each of the substrates are measured by monitoring the concomitant oxidation of NADPH by NfsA and NADH by NfsB in a fluorescence based assay. The reduction in fluorescence due to the NADH oxidation (excitation 350 nm, emission 460 nm) and NADPH oxidation (excitation 340 nm, emission 485 nm) is recorded using a TECAN Infinite M200Pro spectrophotometer, in half area solid black microtiter plates. This change in fluorescence directly corelates to the reduction of the nitro-compounds in the reaction. The NfsA assays is performed by initiating the reactions with 40 μM NADPH and 10 nM NfsA in 50 mM Tris-HCl (pH 7.4), 5 mM EDTA against 20 μM substrate (5 μl of compounds/substrate dissolved in 100% DMSO) in a total reaction volume of 100 μl at 25 °C. Similarly, the NfsB assay is also performed by initiating the reactions with 40 μM NADH and 70 nM NfsB in 50 mM Tris-HCl (pH 7.4), 5 mM EDTA against 20 μM substrate in a total reaction volume of 100 μl. […] All reactions are performed in replicates of two or more and the fluorescence measurements are made at 10 second intervals for 5–10 minutes.
Low solubility of the compounds/substrates under the NfsA and NfsB assay conditions precluded determination of their Km. […] The relative fluorescence units (RFU) obtained due to NADPH (excitation 340 nm, emission 485 nm) or NADH (excitation 350 nm, emission 460 nm) oxidation of the first 90 sec reaction is used to compute the slopes using linear regression analysis on GraphPad Prism. Appropriate blank reactions are included to account for background fluorescence/quenching from each of the components such as DMSO, the compound itself and auto-oxidation of NADPH or NADH. Activity of NfsB with a known substrate such as nitrofurantoin is used as a benchmark to plot the relative activities with all the test compounds.

T1 sequence (P38489 whole entry): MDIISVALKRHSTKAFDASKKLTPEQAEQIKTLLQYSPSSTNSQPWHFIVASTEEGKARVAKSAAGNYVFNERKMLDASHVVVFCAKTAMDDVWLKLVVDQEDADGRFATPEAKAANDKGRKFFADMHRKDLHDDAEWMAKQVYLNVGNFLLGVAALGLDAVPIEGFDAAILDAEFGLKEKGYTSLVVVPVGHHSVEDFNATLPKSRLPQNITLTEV

O=C(Nc1nc(-c2ccc(F)cc2)cs1)c1ccc([N+](=O)[O-])s1 [compound 15, N-(4-(4-Fluorophenyl)thiazol-2-yl)-5-nitrothiophene-2-carboxamide]
6 to 8 h: time to 99.9% reduction (E. coli BW24113; at 2–4X MIC)
10 µg/mL: MIC90 [2]
7.64 µM/min: NfsB activity (rate of compound conversion) (NfsB)
0.5 µg/mL: MIC ([2]; strain SEC002) | MIC ([2]; strain SEC005) | MIC ([2]; strain SEC006) | MIC ([2]; strain SEC011) | MIC ([2]; strain SEC015) | MIC ([2]; strain SEC018) | MIC ([2]; strain SEC021) | MIC ([2]; strain SEC023) | MIC ([2]; strain SEC058) | MIC ([2]; strain SEC059) | MIC ([2]; strain SEC060) | MIC ([2]; strain SEC077) | MIC ([2]; strain SEC078)
0.6 to 40 µg/mL: MIC Range [2]
1.25 µg/mL: MIC ([1]; BW25113, E. coli WT BW25113) | MIC ([1]; BW25113, Table S11) | MIC50 [2]
2 µg/mL: MIC ([2]; strain SEC013) | MIC ([2]; strain SEC024) | MIC ([2]; strain SEC026) | MIC ([2]; strain SEC036) | MIC ([2]; strain SEC050) | MIC ([2]; strain SEC051) | MIC ([2]; strain SEC061) | MIC ([2]; strain SEC062)
8 µg/mL: MIC ([2]; strain SEC016) | MIC ([2]; strain SEC029) | MIC ([2]; strain SEC031) | MIC ([2]; strain SEC035) | MIC ([2]; strain SEC037) | MIC ([2]; strain SEC038) | MIC ([2]; strain SEC040) | MIC ([2]; strain SEC041) | MIC ([2]; strain SEC042) | MIC ([2]; strain SEC043) | MIC ([2]; strain SEC044) | MIC ([2]; strain SEC045) | MIC ([2]; strain SEC046) | MIC ([2]; strain SEC047) | MIC ([2]; strain SEC048) | MIC ([2]; strain SEC049) | MIC ([2]; strain SEC053) | MIC ([2]; strain SEC071) | MIC ([2]; strain SEC072) | MIC ([2]; strain SEC073)
8 h: time to total kill (below the limit of quantitation, LOQ) (E. coli BW24113; at 8X MIC)
4 µg/mL: MIC ([2]; strain SEC003) | MIC ([2]; strain SEC008) | MIC ([2]; strain SEC019) | MIC ([2]; strain SEC025) | MIC ([2]; strain SEC039) | MIC ([2]; strain SEC070)
1 µg/mL: MIC ([2]; strain SEC001) | MIC ([2]; strain SEC004) | MIC ([2]; strain SEC007) | MIC ([2]; strain SEC012) | MIC ([2]; strain SEC014) | MIC ([2]; strain SEC017) | MIC ([2]; strain SEC020) | MIC ([2]; strain SEC022) | MIC ([2]; strain SEC028) | MIC ([2]; strain SEC032) | MIC ([2]; strain SEC033) | MIC ([2]; strain SEC034) | MIC ([2]; strain SEC052) | MIC ([2]; strain SEC054) | MIC ([2]; strain SEC055) | MIC ([2]; strain SEC057) | MIC ([2]; strain SEC063) | MIC ([2]; strain SEC064) | MIC ([2]; strain SEC065) | MIC ([2]; strain SEC067) | MIC ([2]; strain SEC068) | MIC ([2]; strain SEC069) | MIC ([2]; strain SEC074) | MIC ([2]; strain SEC075) | MIC ([2]; strain SEC076) | MIC ([2]; strain SEC079) | MIC ([2]; strain SEC080)

O=C1CN(/N=C/c2ccc([N+](=O)[O-])o2)C(=O)N1 [nitrofurantoin, reference compound]
40 µg/mL: MIC ([2]; strain SEC003) | MIC ([2]; strain SEC005) | MIC ([2]; strain SEC007) | MIC ([2]; strain SEC011) | MIC ([2]; strain SEC016) | MIC ([2]; strain SEC019) | MIC ([2]; strain SEC025) | MIC ([2]; strain SEC035) | MIC ([2]; strain SEC036) | MIC ([2]; strain SEC040) | MIC ([2]; strain SEC047) | MIC ([2]; strain SEC048) | MIC ([2]; strain SEC049) | MIC ([2]; strain SEC051) | MIC ([2]; strain SEC053) | MIC ([2]; strain SEC057) | MIC ([2]; strain SEC061) | MIC ([2]; strain SEC063) | MIC ([2]; strain SEC064) | MIC ([2]; strain SEC073) | MIC ([2]; strain SEC074) | MIC ([2]; strain SEC080)
5 to 160 µg/mL: MIC Range [2]
3.50 µM/min: NfsB activity (rate of compound conversion) (NfsB)
5 µg/mL: MIC ([2]; strain SEC028)
2.5 µg/mL: MIC ([1]; BW25113, E. coli WT BW25113)
10 µg/mL: MIC ([2]; strain SEC042) | MIC ([2]; strain SEC075)
160 µg/mL: MIC ([2]; strain SEC020) | MIC ([2]; strain SEC052)
80 µg/mL: MIC90 [2] | MIC ([2]; strain SEC001) | MIC ([2]; strain SEC004) | MIC ([2]; strain SEC008) | MIC ([2]; strain SEC013) | MIC ([2]; strain SEC023) | MIC ([2]; strain SEC044) | MIC ([2]; strain SEC058) | MIC ([2]; strain SEC077) | MIC ([2]; strain SEC078)
20 µg/mL: MIC50 [2] | MIC ([2]; strain SEC002) | MIC ([2]; strain SEC006) | MIC ([2]; strain SEC012) | MIC ([2]; strain SEC014) | MIC ([2]; strain SEC015) | MIC ([2]; strain SEC017) | MIC ([2]; strain SEC018) | MIC ([2]; strain SEC021) | MIC ([2]; strain SEC022) | MIC ([2]; strain SEC024) | MIC ([2]; strain SEC026) | MIC ([2]; strain SEC029) | MIC ([2]; strain SEC031) | MIC ([2]; strain SEC032) | MIC ([2]; strain SEC033) | MIC ([2]; strain SEC034) | MIC ([2]; strain SEC037) | MIC ([2]; strain SEC038) | MIC ([2]; strain SEC039) | MIC ([2]; strain SEC041) | MIC ([2]; strain SEC043) | MIC ([2]; strain SEC045) | MIC ([2]; strain SEC046) | MIC ([2]; strain SEC050) | MIC ([2]; strain SEC054) | MIC ([2]; strain SEC055) | MIC ([2]; strain SEC059) | MIC ([2]; strain SEC060) | MIC ([2]; strain SEC062) | MIC ([2]; strain SEC065) | MIC ([2]; strain SEC067) | MIC ([2]; strain SEC068) | MIC ([2]; strain SEC069) | MIC ([2]; strain SEC070) | MIC ([2]; strain SEC071) | MIC ([2]; strain SEC072) | MIC ([2]; strain SEC076) | MIC ([2]; strain SEC079)
